Experimental data published in US5614534A, “Derivatives of β, β-dimethyl-4-piperidineethanamine as inhibitors of the cholesterol biosynthesis” (Fournier Industrie et Sante, priority 1993, dated 1997).

molecular target: T1, epoxysqualene cyclase (Rattus norvegicus, UniProt P48450); test: inhibition of epoxysqualene cyclase in rat hepatic microsomes (lanosterol formed from (R,S)-2,3-oxydosqualene); type: biochemical, male Wistar rats; details: 25.10^-6 moles per liter of tested product; 150 μM (R,S)-2,3-oxydosqualene, 60 minutes at 37° C., pH=7.4; read-out: Inhibition percentage (of the quantity of lanosterol formed)
T1 construct: Rat hepatic microsomes were used as the source of the enzyme; from tissue; host or cells: liver microsomes of male Wistar rats
T1 sequence (P48450 1-733): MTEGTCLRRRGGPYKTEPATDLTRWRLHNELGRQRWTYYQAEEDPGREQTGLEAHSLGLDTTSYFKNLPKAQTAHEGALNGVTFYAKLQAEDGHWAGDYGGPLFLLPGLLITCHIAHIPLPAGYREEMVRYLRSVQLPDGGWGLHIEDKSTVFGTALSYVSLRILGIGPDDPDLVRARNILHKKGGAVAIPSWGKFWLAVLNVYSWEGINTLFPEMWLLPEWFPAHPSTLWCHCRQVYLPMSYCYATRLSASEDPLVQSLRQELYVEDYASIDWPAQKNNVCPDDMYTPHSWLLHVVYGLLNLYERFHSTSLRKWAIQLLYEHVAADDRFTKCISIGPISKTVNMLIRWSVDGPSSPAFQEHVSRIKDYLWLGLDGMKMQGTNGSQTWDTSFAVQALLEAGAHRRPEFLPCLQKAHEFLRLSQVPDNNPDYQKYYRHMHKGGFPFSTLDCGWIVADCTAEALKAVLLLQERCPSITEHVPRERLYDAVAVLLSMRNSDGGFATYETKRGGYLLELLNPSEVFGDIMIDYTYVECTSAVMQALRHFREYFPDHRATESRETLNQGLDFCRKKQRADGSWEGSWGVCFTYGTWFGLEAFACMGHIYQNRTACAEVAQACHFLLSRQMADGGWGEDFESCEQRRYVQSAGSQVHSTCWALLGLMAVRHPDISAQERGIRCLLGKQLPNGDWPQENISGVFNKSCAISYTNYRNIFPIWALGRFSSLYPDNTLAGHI
Method: The activity of the Compounds of the invention was evaluated by the observation of an inhibiting effect on epoxysqualene cyclase in the hepatic microsomes of male Wistar rats.
The method consisted of measuring the lanosterol formed from R,S-2,3-oxydosqualene by the microsomal enzyme. The enzyme was prepared using the method described by G. C. Ness (G. C. Ness et. al., Biochem. J., (1986), 233, 167-172).
Method for Measuring the Activity of Epoxysqualene Cyclase
Rat hepatic microsomes were used as the source of the enzyme. The method consisted in measuring the lanosterol formed from (R,S)-2,3-oxydosqualene.The (R,S)-2,3-oxydosqualene, the products to be tested and TWEEN® 80 in organic solution (2-propanone or sulphinyl bis-methane) (25 μl) were placed in test tubes and 400 μl of potassium buffer (0.1M, pH=7.4) was added. The reaction was initiated by adding 100 μl of the microsomes. In a final reaction volume of 525 μl, the mixture contained 150 μM of (R,S)-2,3-oxydosqualene, 0.1% of TWEEN® 80 (to dissolve the (R,S)-2,3-oxydosqualene) and 250 μg of microsomal proteins. The reaction time was 60 minutes at 37° C. The reaction was stopped by addition of 300 μl of methanolic potassium hydroxide (7%) and 20 μg of stigmasterol as an internal standard. After saponification at 80° C. for 30 minutes and stirring using a rotary stirrer, the sterols were extracted with 2 ml of hexane. The lanosterol formed was separated from the (R,S)-2,3-oxydosqualene, the membranal cholesterol and the stigmasterol by gas phase chromatography after transformation to the trimethylsilyl ethers. Derivatisation of the sterols was carried out at 60° C. for 30 minutes after addition of 25 μl of pyridine and 75 μl of the trimethylsilyl ester of 2,2,2-trifluoro-N-trimethylsily-ethanimidic acid containing 1% of trimethylchlorosilane ethers.
After evaporation, the trimethylsilyl ethers were taken up into solution in 100 μl of hexane. An aliquot of this solution (2 μl) was gas chromatographed on a OV1 capillary column (0.32 mm, 25 m) under the following conditions: injection temperature=270° C., furnace temperature=260° C., detector temperature=300° C.; the vector gas was nitrogen at a pressure of 7.10^4 Pa.
The potency of the molecules tested was expressed as the percentage inhibition of the quantity of lanosterol formed for a concentration of 25.10^-6 moles per liter of product tested.

SMILES	inhibition
CC(C)Cc1ccc(C(C)CN2CCC(C(C)(C)CN(C)C)CC2)cc1 (stereo not drawn) [Example 32, 1-[2-[4-(2-methylpropyl)phenyl]-2-methylethyl]-N,N,β,β-tetramethyl-4-piperidineethanamine]	95%
CN(C)CC(C)(C)C1CCN(C(=O)C=Cc2ccccc2)CC1 [Example 28, 1-(3-phenylpropenoyl)-N,N,β,β-tetramethyl-4-piperidineethanamine]	87%
C=CCN1CCC(C(C)(C)CN(C)C)CC1 [Example 13, 1-(2-propenyl)-N,N,β,β-tetramethyl-4-piperidineethanamine]	64%
CN(C)CC(C)(C)C1CCN(CC(C)(C)Oc2ccc(Cl)cc2)CC1 [Example 30, 1-[2-(4-chlorophenoxy)-2,2-dimethyl-ethyl]-N,N,β,β-tetramethyl-4-piperidineethanamine]	92%
CC(C)=CCN1CCC(C(C)(C)CN(C)C)CC1 [Example 14, 1-(3,3-dimethylpropen-2-yl)-N,N,β,β-tetramethyl-4-piperidineethanamine]	48%
CN(C)CC(C)(C)C1CCN(CC=Cc2ccccc2)CC1 [Example 31, 1-(3-phenylpropenyl)-N,N,β,β-tetramethyl-4-piperidineethanamine]	99%
CCOC(=O)CCCN1CCC(C(C)(C)CN(C)C)CC1 [Example 25]	81%
CCCCCCCCCCCCN1CCC(C(C)(C)CNC(C)=O)CC1 [Example 11, N-[2-methyl-2-[(1-dodecyl)-4-piperidinyl]propyl]-N-acetamide]	58%
CCCCCCCCCCCCN1CCC(C(C)(C)CN2CCCCC2)CC1 [Example 15, 1-[[2-[4-(1-dodecylpiperidinyl)]-2-methyl]propyl]piperidine]	40%
CCCCCCCCCCCCN1CCC(C(C)(C)CNCC)CC1 [Example 9, 1-dodecyl-N-ethyl,β,β-dimethyl-4-piperidineethanamine]	96%
CC(Cc1ccc(C(C)C)cc1)CN1CCC(C(C)(C)CN(C)C)CC1 (stereo not drawn) [Example 18, 1-[3-[4-(methylethyl)phenyl]-2-methyl-propyl]-N,N,β,β-tetramethyl-4-piperidineethanamine]	100%
CCCCCCCCCCCCN1CCC(C(C)(C)CN(CC)CC)CC1 [Example 4, 1-dodecyl-N,N-diethyl,β,β-dimethyl-4-piperidineethanamine]	63%
CCCCCCCCCCCCN1CCC(C(C)(C)CN(C)C)CC1 [Example 2, 1-dodecyl-N,N,β,β-tetramethyl-4-piperidineethanamine]	97%
CN(C)CC(C)(C)C1CCN(C(=O)C(C)(C)Oc2ccc(Cl)cc2)CC1 [Example 29, 1-[2-(4-chlorophenoxy)-2,2-dimethyl-ethanoyl]-N,N,β,β-tetramethyl-4-piperidineethanamine]	95%
CCCCCCCCCCCCN1CCC(C(C)(C)CN(C)C(C)=O)CC1 [Example 10, N-methyl-N-[2-methyl-2-[(1-dodecyl)-4-piperidinyl]propyl]acetamide]	66%
CCCCCCCCCCCCN1CCC(C(C)(C)CN)CC1 [Example 1, 1-dodecyl-β,β-dimethyl-4-piperidineethanamine]	75%
CN(C)CC(C)(C)C1CCN(CCCCCC(C)(C)C)CC1 [Example 17, 1-(6,6-dimethyl-heptyl)-N,N,β,β-tetramethyl-4-piperidineethanamine]	100%
CCCCCCCCCCCC(=O)N1CCC(C(C)(C)C[N+](C)(C)C)CC1 [Example 27, 1-[(1-undecyl)carbonyl]-N,N,N,β,β-pentamethyl-4-piperidinethanaminium Iodide]	100%
CN(C)CC(C)(C)C1CCN(CCCCCCCCCCCn2ccnc2)CC1 [Example 21, 1-[(11-imidazolyl)undecyl]-N,N,β,β-tetramethyl-4-piperidineethanamine]	100%
CN(C)CC(C)(C)C1CCN(C/C=C/C#CC(C)(C)C)CC1 [Example 16, (E)-1-(6,6-dimethyl-2-hepten-4-yn-1-yl)-N,N,β,β-tetramethyl-4-piperidineethanamine]	100%
CC(C)CCCC(=O)NCCCN1CCC(C(C)(C)CN(C)C)CC1 [Example 24, N-[[4-[2-(1-dimethylamino-2-methyl)propyl]-1-piperidinyl]-1-propyl]-5-methylhexanamide]	93%
CCCCCCCCCCC(=O)N1CCC(C(C)(C)CN(C)C)CC1 [Example 19, 1-undecanoyl-N,N,β,β-tetramethyl-4-piperidineethanamine]	100%
CN(C)CC(C)(C)C1CCN(C(=O)CCCCCCCCCCn2ccnc2)CC1 [Example 20, 1-[(11-imidazolyl)undecanoyl]-N,N,β,β-tetramethyl-4-piperidineethanamine]	100%
CC(C)CCCNC(=O)CCCN1CCC(C(C)(C)CN(C)C)CC1 [Example 26, N-(4-methylpentyl)-4-[2-(1-dimethylamino-2-methyl)propyl]-1-piperidinebutanamide]	100%
